In ChEMBL document CHEMBL4270501, “Indole-fused azepines and analogues as anticancer lead molecules: Privileged findings and future directions” (Eur J Med Chem, 2017):
pIC50: −log10 of the molar value.

Tested on: MCF7
Test: Growth inhibition of human MCF7 cells by MTT assay
Assay type: functional, cell-based

pIC50	SMILES
6.22	COc1ccc2c3c([nH]c2c1)-c1ccccc1NC(=O)C3
5.92	O=C1Cc2c([nH]c3ccccc23)-c2ccccc2N1 [PAULLONE]
